From article PMC11561307, “Ultra-inert lanthanide chelates as mass tags for multiplexed bioanalysis” (Nature Communications, 2024)
Blank lines part the entries; values can stand above or below the compound they belong to.

Legend:
[1] = Epimerization of BocCys{Lu} diastereomers followed by 1H NMR; type: physicochemical; conditions: Supp. Fig. 22B, chirality inversion
Description: The ClickZip chelates are inherently chiral, with defined rotation of the pendant arms (Λ or Δ) and of the four ethylene units in the cyclen ring (λλλλ or δδδδ), analogous to the DOTA system[15],[27],[34]. However, in contrast to DOTA, they only adopt enantiomeric Λλλλλ and Δδδδδ forms with twisted-square antiprismatic (TSA) arrangements (Fig. 4). To probe whether these enantiomers can interconvert, we modified {Lu} with L-cysteine residues to produce a pair of distinguishable diastereomers. […] The enantiomers of {M} can thus be regarded either as one or two compounds, depending on the time scale.
Fig. 4 Chirality of ClickZip chelates. Inherent chirality of the molecules is given by rotation of the pendant arms (Λ or Δ) and of the four ethylene units in the cyclen ring (λλλλ or δδδδ). In theory, four isomers are possible: two twisted square antiprismatic (TSA) enantiomers (Λλλλλ and Δδδδδ), and two square antiprismatic (SA) enantiomers (Δλλλλ and Λδδδδ). The ClickZip chelates exclusively adopt the TSA arrangements Λλλλλ and Δδδδδ, which were observed together in all solid-state structures as well as in solution. These two forms interconvert on the time scale of hours at 37 °C (Supplementary Fig. 22). Both enantiomers shown here were found in the crystal structure of [{Lu}]^+[ClO4]^−·5H2O. Thermal ellipsoids were set at 50% probability.
Supplementary Fig. 97. Synthesis of BocCys {Lu} and its epimer separation. In a glass vial (4 mL), [Cl{Lu}] +[T FA ]−·5.1H2O (4.0 mg; 4.2 µmol; 1.0 equiv.) was dissolved in DMSO (160 µL) followed by addition of N-Boc-cysteine (200 mM in DMSO; 31 µL; 6.2 µmol; 1.5 equiv.) and DIPEA (7.3 µL; 42 µmol; 10 equiv.) and the resulting solution was stirred for 16 h at 40 °C. Mixture (containing racemic mixture of BocCys {Lu} epimers) was then diluted with DMSO (0.5 mL) and filtered through syringe microfilter (RC). Filtrate was then directly purified by preparative HPLC […]
Fractions with epimer A (front part of the first eluting peak) and B (latter part of the second eluting peak) were quickly freezed and directly lyophilized. The resulting solids were dissolved in 500 μL of deuterated 50 mM MOPS/NaOD buffer (formal pH 7.4; obtained from MOPS/NaOH buffer of such pH by multiple evaporation/D2O resupply cycles). Epimer A (obtained in slightly higher epimeric purity than epimer B) was used for continuous 1H NMR epimerization study at 37 °C (Supplementary Fig. 22) while epimer B was incubated concurrently under identical conditions on heated magnetic stirrer. Conversion: ≥95% (based on Cl {Lu}).

[2] = Hydrolysis of ClickZip conjugates with model hexapeptide in HCl; type: physicochemical; conditions: 0.5 mM conjugate in 2 M HCl at 80 °C; HPLC 285 nm; Y value after 4 d
Procedure: While the acid-assisted dechelation of lanthanide DOTA chelates proceeds with a rate similar to hydrolysis of a peptide bond[24], the ultra-inert ClickZip chelates of Lu^III and near lanthanides should outlast complete hydrolysis of peptides and proteins. To test this, we prepared model hexapeptide conjugates with two ClickZip derivatives, HO2CPh{Ln} or HO2CBn{Ln}, which differed in their amide linkage to the peptide N-end (Fig. 6). Hydrolysis in 2 M HCl at 80 °C digested the peptide to individual amino acids; the chelates were cleaved from the peptide with no loss of the metal (Lu^III or Tm^III), or only small loss (5% for Y^III chelate).
Fig. 6 ClickZip and peptide bond stability comparison. Hydrolysis of ClickZip conjugates with model hexapeptide AYFHVG-NH2 connected by either aromatic or aliphatic amide bonds in strong acid. Conditions: 0.5 mM {Ln}PhCO-AYFHVG-NH2 or {Ln}BnCO-AYFHVG-NH2 in 2 M HCl at 80 °C. Analysis: λ = 285 nm (HPLC, H2O–MeCN, formic acid additive). […] The hydrolysis is faster for {Ln}BnCO-AYFHVG-NH2 species connected to the peptide via aliphatic amide moiety (n = 1) where HO2CBn{Ln} is formed quantitatively after 1 d. […] Nevertheless, prolonged reaction time led to quantitative formation of HO2CPh{Ln}. […]

abundance, % of epimer ([1]; 0.757 h): 89.6% | abundance, % of epimer ([1]; 0.913 h): 83.6% | abundance, % of epimer ([1]; 1.220 h): 84.0% | abundance, % of epimer ([1]; 1.376 h): 90.7% | abundance, % of epimer ([1]; 1.532 h): 83.1% | abundance, % of epimer ([1]; 1.735 h): 83.8% | abundance, % of epimer ([1]; 1.891 h): 74.9% | abundance, % of epimer ([1]; 2.467 h): 74.2% | abundance, % of epimer ([1]; 2.641 h): 78.5% | abundance, % of epimer ([1]; 2.985 h): 70.9% | abundance, % of epimer ([1]; 3.611 h): 62.0% | abundance, % of epimer ([1]; 4.238 h): 64.6% | abundance, % of epimer ([1]; 4.864 h): 63.0% | abundance, % of epimer ([1]; 5.489 h): 63.7% | abundance, % of epimer ([1]; 6.704 h): 52.8% | abundance, % of epimer ([1]; 7.918 h): 58.7% | abundance, % of epimer ([1]; 9.132 h): 55.2% | abundance, % of epimer ([1]; 10.346 h): 50.5% | abundance, % of epimer ([1]; 11.560 h): 49.5% | abundance, % of epimer ([1]; 12.775 h): 50.6% | abundance, % of epimer ([1]; 13.988 h): 49.2% | abundance, % of epimer ([1]; 17.779 h): 50.3%
Compound: O=C(CN1CC2CC(=O)Nc3cccc1c32)Nc1ccc2c(c1)C[C@]1(C2)C(=O)Nc2ncccc21 (single isomer, unassigned) [epimer A]

Compound: {Y}PhCO-AYFHVG-NH2 [model hexapeptide conjugate with {Y} tag, aromatic amide]
loss (leak) of metal ion during hydrolysis of hexapeptide conjugate [2]: ~ 5%
